Ends that are not written are not given here.
Assays:
Staphylococcus simulans [1] = test: Sytox green membrane damage assay, S. simulans; format: cell-based; details: Sytox green, Gram-positive bacteria, 20 °C, pH 7.2, 2 min before and 6 min after antibiotic; triplicates
Experimental: (§1) The bacterial cultures were grown overnight at 30 °C in TSB media for S. simulans and at 37 °C in LB medium for Bacillus subtilis. Secondary cultures were grown for 3 h until OD600 = 0.5 was reached. The bacterial cells were then centrifuged at 1,500g for 10 min at 4 °C and washed twice with 10 ml of buffer (10 mM Tris, 100 mM NaCl, 1 mM MgCl2 and 0.5% glucose, pH 7.2). The bacterial cells were resuspended to an OD600 = 10 in the buffer and used for the experiment. […] For the assay, 1 μl of the bacterial suspension was added to 1 ml of buffer. For the ion leakage assays, 1 μl of the DiSC-2 probe from a 1 mM stock was added to the cuvette and the fluorescence was measured between a wavelength of 650 nm and 670 nm (bandwidth of […]) for 2 min before the addition of the antibiotic and 6 min after. For the Sytox green leakage assays, 1 μl of the Sytox green probe from a 0.25 mM stock was added to the cuvette and the fluorescence was measured between a wavelength of 500 nm and 520 nm (bandwidth of […]) for 2 min before the addition of the antibiotic and 6 min after. All experiments were performed in triplicates.

S. simulans = test: MIC, S. simulans (given with permeabilization assay concentrations); format: cell-based
B. subtilis = test: MIC, B. subtilis (given with permeabilization assay concentrations); format: cell-based, Bacillus subtilis
Experimental: as §1

Staphylococcus simulans [2] = test: DiSC membrane depolarization (ion leakage) assay, S. simulans; format: cell-based; details: DiSC-2 probe, Gram-positive bacteria (Fig. 4h and Extended Data Fig. 10b,c), 20 °C, pH 7.2, 2 min before and 6 min after antibiotic; triplicates
Experimental: as §1

[3] = species not clearly assigned (S. simulans by word order)

Compound | membrane damage, Sytox green (in words) (Staphylococcus simulans [1]) | concentration stated as 10× MIC (S. simulans; [3]) | concentration stated as 1× MIC (S. simulans; S. simulans) | concentration stated as 10× MIC (B. subtilis) | decrease in membrane potential / depolarization (in words) (Staphylococcus simulans [2]) | concentration stated as 1× MIC (S. simulans; [3])
CN[C@H](CC(C)C)C(=O)N[C@H]1C(=O)N[C@@H](CC(N)=O)C(=O)N[C@H]2C(=O)N[C@H]3C(=O)N[C@H](C(=O)N[C@H](C(=O)O)c4cc(O)cc(O)c4-c4cc3ccc4O)[C@H](O)c3ccc(c(Cl)c3)Oc3cc2cc(c3O[C@@H]2O[C@H](CO)[C@@H](O)[C@H](O)[C@H]2O[C@H]2C[C@](C)(N)[C@H](O)[C@H](C)O2)Oc2ccc(cc2Cl)[C@H]1O [vancomycin] | Such effects were again absent | 10 µM |  |  |  | 
plectasin: lipid II binder plectasin (GFGCNGPWDEDDMQCHNHCKSIKGYKGGYCAKGGFVCKCY; ends and bridges not checked; cysteine pairing not given here; UniProt Q53I06 56-95, looked up) [reference compound] | Such effects were again absent |  | 0.5 µM | 0.2 µM |  | 
nisin |  |  |  |  | Membrane depolarization was also observed | 0.01 µM

From PMC9365693 (Nature, 2022)
